# Reference: patent US20220347075A1, “PEPTIDE BASED COSMETIC OR DERMATOLOGICAL TREATMENT OF THE SKIN AND ITS APPENDAGES” (Sederma, priority 2019, published 2022)
# Residues, ends and D or L forms follow the SMILES beside them. *: point of attachment. Palmitoyl = CCCCCCCCCCCCCCCC(=O)*
# Experiments:
# Type in all cases: cell-based
# [1] = system: normal human keratinocytes (NHK) exposed to UVB; assay: Immunoenzymatic assay (ELISA) of pro-inflammatory mediators of NHK exposed to UVB
# Experimental: Study by Immune Enzymatic Assay on NHK Culture
# Principle: NHKs in culture and at confluence are brought into contact with the peptide according to the invention (or its solvent) for 24 hours in a medium allowing their survival. Then the cell layers are irradiated with UVB in a physiological buffer and again brought into contact with the products to be tested for 24 hours. At the end of this incubation, the culture media are assayed by ELISA to know the amounts of pro-inflammatory mediators produced by these cells in response to irradiation. The results are compared to the control. A cell respiration test is conducted on the fixed mat to assess the number of cells and standardize the results. A study of variances and a Student's t test are carried out for judging the significance of the results.
# To test the active ingredients, keratinocytes were placed in culture under light stress conditions (application of UVB radiation) to mimic an experimental skin micro-inflammation. In this situation, a significant decrease in their secretome of inflammation mediators will be interpreted in the sense of a restorative and protective action of the skin.
# Variation compared to the control of the secretome of pro-inflammatory mediators by NHKs exposed to UVB (by immunoenzymatic assay)/effect of the peptide according to the invention at 4, 6 and 8 ppm: […]
# [2] = system: normal human keratinocytes (NHK); assay: DNA microarray (DNA-Array) gene expression on NHK culture; conditions: 7 ppm
# Experimental: Study Using DNA Microarray Technology (DNA-Array) on NHK Culture
# Principle: the peptide according to the invention (7 ppm) is brought into contact for 24 or 48 hours with confluent NHKs (vs. control case). Then the NHK mats are rinsed, and the cells are crushed to extract their mRNA. These mRNAs are then converted into DNA sequences which are analyzed after depositing on DNA chips and amplification by a method like QRT-PCR. The mRNA variations due to the peptide are compared to the control case (peptide solvent). The results are expressed as an expression ratio between the treated case and the control case. A ratio greater than 1.5 is as an induction of gene expression (+50% compared to the control).
# [3] = system: normal human keratinocytes (NHK); assay: LC-MS/MS protein study on NHK culture; conditions: 5 ppm; 7 days; p < 0.01
# Excerpt: Liquid Chromatography/Mass Spectrometry (LC-MS/MS) Study on NHK Culture
# Principle: the same culture protocol as for the DNA-Array is used but with a longer culture time (7 days) because the protein productions take longer to be able to be detected with this method in LC-MS/MS. The peptide concentration applied to the cells is 5 ppm (vs. control case). The culture medium of the NHK (n=3) is changed every 3 days. At the end of this contact, the cells are lysed for extracting the proteins and to analyze them in the form of ground material by a method combining the action of a protease on the ground material, the separation of the fragments by liquid chromatography coupled with mass spectrometry, and then the identification and concentration of pre-existing proteins according to the nature and quantity of the fragments obtained (LC-MS/MS). To carry out LC-MS/MS analysis on equivalent amounts of proteins, the protein concentration is measured on the ground material. The results are expressed as an expression ratio between the treated case and the control case. A ratio greater than 1.5 is considered as an increase in protein production (+50% compared to the control). A study of variances and a Student's t test is carried out for judging the significance of the results.
# [4] = system: normal human keratinocytes (NHK); assay: Immunocytofluorescence labeling of involucrin, loricrin, filaggrin on NHK culture; conditions: 5 ppm, 7 days, immunofluorescence
# Experimental: Study by Immunocytofluorescence Labeling on KHN Culture
# Principle: confluent NHKs (n=3) are cultured as above for 7 days in the presence or absence (control) of the peptide according to the invention then the cell layers are fixed and labels by immunocytochemistry are carried out using antibodies directed against proteins characteristic of the maturation of the epidermis: involucrine, loricrin and filaggrin. Photos are captured using a fluorescence microscope and images analyzed using appropriate software. The results are compared with those of the control. The number of cells on the mats is evaluated by the Hoechst method (DNA staining), to reduce the fluorescence value to the number of cells. A variance study and a Student's t test are carried to judge the significance of the results.
# 1.1.1. Induction of the formation of involucrin, loricrin and filaggrin in NEM (by immunofluorescence)/effect of 5 ppm of the peptide according to the invention: […]
# Propionibacterium acnes = Propionibacterium acnes growth inhibition test (OD 600 nm); conditions: for Time necessary to reach an OD of 1 (P. acnes growth): control 28 hours, anaerobic, 37° C.
# Experimental: Propionibacterium acnes Growth Inhibition Test Principle: suspensions of Propionibacterium acnes of equivalent density are cultured in a suitable medium in the presence (test case) or absence (control case) of the peptide according to the invention, in anaerobic condition, at 37° C. Samples are taken at regular intervals to measure the OD at 600 nm for following the growth of the bacterial population over time. The growth curve of each culture is thus established. Growth of the bacterium Propionibacterium acnes: time necessary to reach an OD of 1 in the control case and in the presence of the peptide according to the invention (N=2 independent experiments; n=2 cultures per case): […]
# [5] = system: normal human keratinocytes (NHK); assay: Molecular biology study (qRT-PCR) on NHK culture; conditions: 5 ppm, 24 hours, RT-PCR
# Experimental: Molecular Biology Study on NHK Culture
# Principle: in this test, confluent keratinocytes are brought into contact with the peptide according to the invention for 24 hours. The cells are then frozen to dryness and their RNAs are extracted, converted into DNA, then analyzed by qRT-PCR (“Quantitative real time reverse transcription polymerase chain reaction”). The results are expressed as an expression ratio between the treated case and the control case. A ratio greater than 1.5 is as an induction of gene expression (+50% compared to the control). A study of variances and a Student's t test are carried out for judging the significance of the results (n=4 for each condition).
smiles,measurement,setting,value
"CCCCCCCCCCCCCCCC(=O)N[C@@H](CCCCN)C(=O)N[C@H](C(=O)N[C@H](C(=O)N[C@@H](CCCCN)C(=O)N[C@@H](CO)C(=O)O)[C@@H](C)O)[C@@H](C)O [Pal-KTTKS, palmitoyl-lysyl-threonyl-threonyl-lysyl-serine] (Palmitoyl-KTTKS-OH)","IL6 secretion, variation vs control","[1]; 4 ppm, ns",−13%
same,"PGE2 secretion, variation vs control","[1]; 4 ppm, p < 0.01",−41%
same,"IL6 secretion, variation vs control","[1]; 6 ppm, p < 0.01",−68% (p < 0.01)
same,"PGE2 secretion, variation vs control","[1]; 6 ppm, p < 0.01",−69% (p < 0.01)
same,"IL6 secretion, variation vs control","[1]; 8 ppm, p < 0.01",−84% (p < 0.01)
same,"PGE2 secretion, variation vs control","[1]; 8 ppm, p < 0.01",−84% (p < 0.01)
same,"ABHD5 gene expression, variation vs control",[2]; 24 h contact,×2.10
same,"ADGRG1 gene expression, variation vs control",[2]; 24 h contact,×1.92
same,"ALOX12B gene expression, variation vs control",[2]; 24 h contact,×2.48
same,"ALOXE3 gene expression, variation vs control",[2]; 24 h contact,×2.92
same,"ASPRV1 gene expression, variation vs control",[2]; 24 h contact,×3.35
same,"BMP2 gene expression, variation vs control",[2]; 24 h contact,×3.63
same,"BMP6 gene expression, variation vs control",[2]; 24 h contact,×13
same,"ELOVL4 gene expression, variation vs control",[2]; 24 h contact,×5.41
same,"FN1 gene expression, variation vs control",[2]; 24 h contact,×3.38
same,"GSK3B (glycogen synthase kinase 3 beta) gene expression, variation vs control",[2]; 24 h contact,×1.64
same,"GSKA (glycogene synthase kinase 3 alpha) gene expression, variation vs control",[2]; 24 h contact,×1.57
same,"IL37 gene expression, variation vs control",[2]; 24 h contact,×3.60
same,"LCE2C gene expression, variation vs control",[2]; 24 h contact,×26.30
same,"LCE3A gene expression, variation vs control",[2]; 24 h contact,×65.26
same,"LCE3B gene expression, variation vs control",[2]; 24 h contact,×123.00
same,"LCE3D gene expression, variation vs control",[2]; 24 h contact,×110.46
same,"LCE3E gene expression, variation vs control",[2]; 24 h contact,×135.99
same,"LOR gene expression, variation vs control",[2]; 24 h contact,×1.86
same,"PPARD gene expression, variation vs control",[2]; 24 h contact,×1.97
same,"PRSS8 gene expression, variation vs control",[2]; 24 h contact,×3.72
same,"SPRR2A gene expression, variation vs control",[2]; 24 h contact,×8.71
same,"SPRR2B gene expression, variation vs control",[2]; 24 h contact,×58.44
same,"SPRR2C gene expression, variation vs control",[2]; 24 h contact,×6.30
same,"SPRR2D gene expression, variation vs control",[2]; 24 h contact,×7.87
same,"SPRR2E gene expression, variation vs control",[2]; 24 h contact,×6.47
same,"SPRR2F gene expression, variation vs control",[2]; 24 h contact,×6.00
same,"SPRR2G gene expression, variation vs control",[2]; 24 h contact,×13.43
same,"SPRR3 gene expression, variation vs control",[2]; 24 h contact,×1.90
same,"SPRR4 gene expression, variation vs control",[2]; 24 h contact,×2.95
same,"TGM1 gene expression, variation vs control",[2]; 24 h contact,×1.70
same,"CDSN gene expression, variation vs control",[2]; 24 hours of contact,×3.36
same,"CGNL1 gene expression, variation vs control",[2]; 24 hours of contact,×3.37
same,"CLDN4 gene expression, variation vs control",[2]; 24 hours of contact,×5.16
same,"CLDN7 gene expression, variation vs control",[2]; 24 hours of contact,×4.47
same,"CLDN12 gene expression, variation vs control",[2]; 24 hours of contact,×2.68
same,"CLDN15 gene expression, variation vs control",[2]; 24 hours of contact,×4.80
same,"CLDN17 gene expression, variation vs control",[2]; 24 hours of contact,×113.20
same,"CLDN23 gene expression, variation vs control",[2]; 24 hours of contact,×3.69
same,"KLK14 gene expression, variation vs control",[2]; 24 hours of contact,×1.79
same,"OCLN gene expression, variation vs control",[2]; 24 hours of contact,×5.91
same,"TJP1 gene expression, variation vs control",[2]; 24 hours of contact,×2.15
same,"CERS1 gene expression, variation vs control",[2]; 48 h contact,×3.48
same,"CRNN gene expression, variation vs control",[2]; 48 h contact,×4.73
same,"TCHH gene expression, variation vs control",[2]; 48 h contact,×4.87
same,"SOD2 gene expression, variation vs control",[2]; 48 hours contact,×2.93
same,"ADGRG1 protein, variation vs control",[3],×1.63;
same,"ASPRV1 protein, variation vs control",[3],×2.35; p < 0.01
same,"CALM5 protein, variation vs control",[3],×1.61; p < 0.01
same,"CRYAB (alpha-crystallin B) protein, variation vs control",[3],×2.24; p < 0.01
same,"FLG (filaggrin) protein, variation vs control",[3],×2.66; p < 0.01
same,"KRT1 protein, variation vs control",[3],×1.58; p < 0.01
same,"KRT6B protein, variation vs control",[3],×2.07; p < 0.01
same,"KRT9 protein, variation vs control",[3],×1.54; p < 0.01
same,"KRT10 protein, variation vs control",[3],×1.75; p < 0.01
same,"KRT15 protein, variation vs control",[3],×2.02; p < 0.01
same,"LOR (loricrin) protein, variation vs control",[3],×2.92; p < 0.01
same,"SPINK5 protein, variation vs control",[3],×1.58; p < 0.01
same,"TCHH (trichohyalin) protein, variation vs control",[3],×1.54; p < 0.01
same,"THBS1 protein, variation vs control",[3],×1.98;
same,Filaggrin: % of variation/control,[4]; p < 0.01,+310%; p < 0.01
same,Loricrin: % of variation/control,[4]; p < 0.01,+128%; p < 0.01
same,Involucrin: % of variation/control,[4]; p < 0.05,+1057%; p < 0.05
same,Time necessary to reach an OD of 1 (P. acnes growth),Propionibacterium acnes; 6 ppm of peptide,42 h
same,Growth of Propionibacterium acnes (result in words),Propionibacterium acnes; 6 to 12 ppm,strongly and dose-dependently inhibits the growth
same,Time necessary to reach an OD of 1 (P. acnes growth),Propionibacterium acnes; 9 ppm of peptide,54 h
same,Time necessary to reach an OD of 1 (P. acnes growth),Propionibacterium acnes; 12 ppm of peptide,85.5 h
same,"CRYAB (alpha-crystallin B) gene expression, variation vs control",[5]; p < 0.01,×3.47; p < 0.01
same,"Involucrine gene expression, variation vs control",[5]; p < 0.01,×1.64; p < 0.01
same,"Transglutaminase 1 gene expression, variation vs control",[5]; p < 0.05,×1.82; p < 0.05
